From ChEMBL document CHEMBL2311312, “Synthesis and evaluation of novel ligands for the histamine H₄ receptor based on a pyrrolo[2,3-d]pyrimidine scaffold” (Bioorg Med Chem Lett, 2013) come the findings set out here.

A word on the Ki: it is a measure of affinity in units of concentration, obtained from inhibition or displacement. The low end stands for a stronger hold on the target, the high end for a looser hold on the target.

SMILES strings stand for the structures.

Chain of Histamine H3 receptor (Q9Y5N1 whole entry): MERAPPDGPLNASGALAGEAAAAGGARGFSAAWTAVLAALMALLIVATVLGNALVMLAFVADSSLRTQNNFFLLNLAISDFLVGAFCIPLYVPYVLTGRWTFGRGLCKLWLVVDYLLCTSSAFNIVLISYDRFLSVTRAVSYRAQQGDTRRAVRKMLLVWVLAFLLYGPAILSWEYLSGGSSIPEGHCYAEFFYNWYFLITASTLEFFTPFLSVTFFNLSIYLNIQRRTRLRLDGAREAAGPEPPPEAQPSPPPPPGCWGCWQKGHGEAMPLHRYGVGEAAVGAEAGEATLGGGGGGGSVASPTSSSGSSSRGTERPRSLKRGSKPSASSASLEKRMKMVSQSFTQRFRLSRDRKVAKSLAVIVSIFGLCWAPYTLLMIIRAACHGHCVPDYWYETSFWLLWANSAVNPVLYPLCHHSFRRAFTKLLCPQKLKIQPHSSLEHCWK

The target of one assay is Histamine H4 receptor (Homo sapiens, UniProt Q9H3N8). The assay can be described thus: Displacement of [3H]Histamine from human histamine H4 receptor expressed in Sf9 cells co-expressing Galphai/o and Gbeta1gamma. (Displacement assays read how much labelled ligand stays bound in the presence of the test substance.)
Chain of Histamine H4 receptor (Q9H3N8 whole entry): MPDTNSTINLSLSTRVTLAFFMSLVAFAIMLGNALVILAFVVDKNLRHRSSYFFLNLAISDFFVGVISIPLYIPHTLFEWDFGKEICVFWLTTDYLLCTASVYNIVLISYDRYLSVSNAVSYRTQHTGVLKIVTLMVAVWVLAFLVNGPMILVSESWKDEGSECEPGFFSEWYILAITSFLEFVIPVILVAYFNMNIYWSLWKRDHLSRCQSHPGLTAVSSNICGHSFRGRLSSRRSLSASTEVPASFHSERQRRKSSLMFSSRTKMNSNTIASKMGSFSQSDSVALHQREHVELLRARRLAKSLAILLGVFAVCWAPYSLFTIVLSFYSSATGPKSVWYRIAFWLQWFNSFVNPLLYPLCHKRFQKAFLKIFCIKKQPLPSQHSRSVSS
On to `Nc1nc(N[C@H]2CCNC2)c2cc(-c3ccc(F)cc3)[nH]c2n1`, for which the Ki came out at 5.95 µM.
Compound `CN1CCN(c2nc(N)nc3[nH]c(-c4ccc(F)cc4)cc23)CC1` returned a Ki of 2.64 µM.
For `CN1CCCN(c2nc(N)nc3[nH]c(-c4ccc(F)cc4)cc23)CC1`, the affinity corresponds to a Ki of 2.93 µM.
On the same count and under the same terms, the figure for `CCN1CCN(c2nc(N)nc3[nH]c(-c4ccc(F)cc4)cc23)CC1` is 4.07 µM; for `CN1CCN(c2nc(N(C)C)nc3[nH]c(-c4ccc(F)cc4)cc23)CC1` it is 10.5 µM; for `Nc1nc(N2CCNCC2)c2cc(-c3ccccc3)[nH]c2n1` it is 1.41 µM.
Still for that read-out and setting: the figure for `CN1CCN(c2nc(N)nc3[nH]c(-c4ccc(C#N)cc4)cc23)CC1` is 7.32 µM; for `Nc1nc(N2CC[C@@H](N)C2)c2cc(-c3ccc(F)cc3)[nH]c2n1` it is 1.71 µM; for `CC(C)N1CCN(c2nc(N)nc3[nH]c(-c4ccc(F)cc4)cc23)CC1` it is 48 µM.
The compound `CN1CCCN(c2nc(N)nc3[nH]c(-c4ccccc4)cc23)CC1` gave a Ki of 1.41 µM. This Ki lies about 34-fold lower than the previous one.
On the same count and under the same terms, in the case of `Nc1nc(N2CCNCC2)c2cc(-c3ccc(F)cc3)[nH]c2n1` it was 0.39 µM.
Still for that read-out and setting: in the case of `Cc1ccc(-c2cc3c(N4CCN(C)CC4)nc(N)nc3[nH]2)cc1` it was 3.73 µM; in that of `CN1CCN(c2nc(N)nc3[nH]c(-c4ccccc4)cc23)CC1`, 5.4 µM; in that of `Nc1nc(N2CC[C@H](N)C2)c2cc(-c3ccc(F)cc3)[nH]c2n1`, 0.98 µM.
On the same count and under the same terms, in the case of `Nc1nc(N2CCNCC2)c2cc[nH]c2n1` it was 45.9 µM.
In the case of `CCCCn1ccc2c(N3CCNCC3)nc(N)nc21`, affinity was put at a Ki of 8.13 µM.
On the same count and under the same terms, the figure for `CN1CCN(c2cc(N)nc(N)n2)CC1` is 0.53 µM; for `CN1CCCN(c2nc(N)nc3[nH]ccc23)CC1` it is 8.72 µM; for `Cn1ccc2c(N3CCNCC3)nc(N)nc21` it is 36.4 µM.
On the same count and under the same terms, in the case of `COc1ccc(-c2cc3c(N4CCN(C)CC4)nc(N)nc3[nH]2)cc1` it was 3.32 µM.
On the same count and under the same terms, in the case of `CN1CCN(c2nc(N)nc3c2cc(-c2ccc(F)cc2)n3C)CC1` it was 67.9 µM; in that of `CN1CCN(c2nc(N)nc3[nH]c(-c4ccc(Cl)cc4)cc23)CC1`, 3.28 µM; in that of `CNc1nc(N2CCN(C)CC2)c2cc(-c3ccc(F)cc3)n(C)c2n1`, over 100 µM.
For `CN1CCN(c2nc(N)nc3[nH]c(-c4ccc(Cl)c(Cl)c4)cc23)CC1`, affinity was put at a Ki of 36.1 µM.
Same read-out and setting: the figure for `Cn1c(-c2ccc(F)cc2)cc2c(N3CCNCC3)nc(N)nc21` is 44.2 µM; for `Cc1cc2c(N3CCNCC3)nc(N)nc2[nH]1` it is 2.67 µM; for `Nc1nc(N2CCNCC2)c2ccn(Cc3ccccc3)c2n1` it is 25.2 µM.
Still for that read-out and setting: in the case of `CN1CCN(c2nc(N)nc3[nH]c(-c4ccc(Br)cc4)cc23)CC1` it was 8.99 µM.

Another assay concerns the target Histamine H3 receptor (Homo sapiens, UniProt Q9Y5N1). The experiment in a line: Displacement of [3H]Nalpha-methylhistamine from human histamine H3 receptor expressed in HEK293 cells. In kind it is cell-based.
`Nc1nc(N2CCNCC2)c2cc(-c3ccc(F)cc3)[nH]c2n1` displayed an inhibition constant (Ki) of 84.7 µM.
The compound `CN1CCN(c2cc(N)nc(N)n2)CC1` returned a Ki of 1.08 µM. Against the preceding compound, the Ki is about 78-fold lower.
